# Patent US5373090A, “Aprotinin analogues and a process for the production thereof” (Novo Nordisk A/S, priority 1988, dated 1994)
# Experiments:
# [1] = biological target: T1, trypsin (Bos taurus, UniProt P00760); details: known analogues, as claimed in prior art; cited from earlier work
# T1 construct: gene PRSS1
# T1 sequence (P00760 24-246): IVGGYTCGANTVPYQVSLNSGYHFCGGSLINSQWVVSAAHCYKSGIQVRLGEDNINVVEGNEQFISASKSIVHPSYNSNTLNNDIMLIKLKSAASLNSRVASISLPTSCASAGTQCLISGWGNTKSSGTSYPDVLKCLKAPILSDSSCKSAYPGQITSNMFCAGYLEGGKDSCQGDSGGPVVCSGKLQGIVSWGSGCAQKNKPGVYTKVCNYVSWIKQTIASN
# [2] = system: kallikrein; details: known analogues, as claimed in prior art; cited from earlier work
# [3] = biological target: T2, granulocyte elastase (Homo sapiens, UniProt P08246); details: known analogues, as claimed in prior art; cited from earlier work
# T2 sequence (P08246 30-267): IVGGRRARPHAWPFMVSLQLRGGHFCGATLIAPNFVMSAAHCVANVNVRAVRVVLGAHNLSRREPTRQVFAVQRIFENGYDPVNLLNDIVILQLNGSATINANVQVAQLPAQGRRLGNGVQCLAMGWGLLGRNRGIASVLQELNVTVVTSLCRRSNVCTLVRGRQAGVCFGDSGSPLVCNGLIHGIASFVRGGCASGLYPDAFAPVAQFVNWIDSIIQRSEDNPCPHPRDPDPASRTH
# [4] = system: collagenase; details: known analogues, as claimed in prior art; cited from earlier work
# [5] = biological target: T3, Human plasma kallikrein (Homo sapiens, UniProt P03952); test: Inhibition of amidolytic activity of human plasma kallikrein (substrate S2302); format: biochemical
# T3 construct: purchased Sigma (St. Louis, Mo.)
# T3 sequence (P03952 391-638 limits assumed): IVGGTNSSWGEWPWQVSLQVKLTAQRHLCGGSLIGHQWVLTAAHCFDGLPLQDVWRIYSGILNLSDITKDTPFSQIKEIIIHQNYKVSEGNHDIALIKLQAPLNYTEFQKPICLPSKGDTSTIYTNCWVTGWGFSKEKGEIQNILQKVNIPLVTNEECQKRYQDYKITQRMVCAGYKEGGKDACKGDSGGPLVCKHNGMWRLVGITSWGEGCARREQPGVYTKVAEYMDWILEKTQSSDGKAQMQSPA
# T3 sequence (P03952 20-390 partner limits assumed): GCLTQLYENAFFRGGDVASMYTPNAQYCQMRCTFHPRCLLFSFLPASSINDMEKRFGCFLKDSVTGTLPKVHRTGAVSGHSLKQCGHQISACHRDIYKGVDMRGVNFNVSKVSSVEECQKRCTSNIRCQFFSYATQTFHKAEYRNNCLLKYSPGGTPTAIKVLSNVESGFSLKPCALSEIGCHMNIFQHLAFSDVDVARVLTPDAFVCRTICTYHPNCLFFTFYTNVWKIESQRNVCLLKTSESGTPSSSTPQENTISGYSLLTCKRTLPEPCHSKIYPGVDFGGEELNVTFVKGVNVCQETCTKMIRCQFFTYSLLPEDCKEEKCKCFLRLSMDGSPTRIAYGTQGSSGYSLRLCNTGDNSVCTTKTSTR
# Protocol: (§1) The concentration was calculated using E280 nm=8.3 and Mr =6500. Human plasma kallikrein was obtained from Sigma (St. Louis, Mo.), bovine factor Xa was purified according to (H. Nobukazu et al. J.Biochem. 97 (1985)1347-1355), human factor IIa (thrombin) was a gift from Dr. W. Lawson (New York State Dept. of Health, Albany, N.Y.), recombinant human factor VIIa was from NOVO (Bagsvaerd, Denmark) and recombinant human protein Ca was from ZymoGenetics, Inc. (Seattle, Wash.). Substrate S 2302 (H-D-Pro-Phe-Arg-p-nitroanilide) substrate S2238 (H-D-Phe-Pip-Arg-p-nitroanilide) and substrate S2366 (Glu-Pro-Arg-p-nitroanilide) were from Kabi (Stockholm, Sweden). Substrate FXa-1 (methoxycarbonyl DCH-Gly-Arg-p-nitroanilide) was from NycoMed (Oslo, Norway). The experiments were performed in 100 mM NaCl, 50 mM Tris-HCl 0.01% Tween80, pH 7.4 at 25° C.
# Substrate S 2302 (0.6 mM) was added to a final volume of 300 μand the rate of nitroaniline generation was measured at 405 nm by means of a Micro ELISA® Autoreader MR 580 from Dynatech Laboratories. The rate is proportional to the concentration of free enzyme.
# [6] = biological target: T4, human factor IIa (thrombin) (Homo sapiens, UniProt P00734); test: Inhibition of amidolytic activity of factor IIa (substrate S2238); format: biochemical; details: 1.0 μM aprotinin analogue
# T4 construct: human factor IIa (thrombin) was a gift from Dr. W. Lawson; gift from Dr. W. Lawson (New York State Dept. of Health, Albany, N.Y.)
# Protocol: as §1
# (§2) Substrate S 2302 (0.6 mM) was added to a final volume of 300 μand the rate of nitroaniline generation was measured at 405 nm by means of a Micro ELISA® Autoreader MR 580 from Dynatech Laboratories. […]
# (§3) The analogues were also tested for inhibition of the amidolytic activity of the serine proteases: bovine factor Xa, human factor IIa, human recombinant factor VIIa and human recombinant protein Ca. […] Finally the analogues were analysed for an effect on the coagulation factors of human plasma by means of two clotting tests. […]
# [7] = biological target: T5, recombinant human factor VIIa (Homo sapiens, UniProt P08709); test: Inhibition of amidolytic activity of factor VIIa; format: biochemical; details: 1.0 μM aprotinin analogue
# T5 construct: recombinant human factor VIIa was from NOVO (Bagsvaerd, Denmark)
# T5 sequence (P08709 213-466 limits assumed): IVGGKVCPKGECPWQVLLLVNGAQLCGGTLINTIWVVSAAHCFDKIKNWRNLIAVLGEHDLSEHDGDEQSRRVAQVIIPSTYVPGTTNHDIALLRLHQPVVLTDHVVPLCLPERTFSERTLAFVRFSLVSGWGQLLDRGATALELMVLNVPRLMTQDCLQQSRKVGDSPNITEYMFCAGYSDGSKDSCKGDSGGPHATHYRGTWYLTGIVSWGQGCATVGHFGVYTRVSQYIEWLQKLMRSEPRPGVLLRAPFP
# T5 sequence (P08709 61-212 partner limits assumed): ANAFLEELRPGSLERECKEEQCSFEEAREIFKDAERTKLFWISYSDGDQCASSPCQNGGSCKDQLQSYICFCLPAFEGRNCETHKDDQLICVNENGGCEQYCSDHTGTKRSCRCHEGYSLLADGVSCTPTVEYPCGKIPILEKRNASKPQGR
# Protocol: as §1, §2, §3
# [8] = biological target: T6, bovine factor Xa (Bos taurus, UniProt P00743); test: Inhibition of amidolytic activity of factor Xa (substrate FXa-1); format: biochemical; details: 1.0 μM aprotinin analogue; substrate FXa1
# T6 construct: bovine factor Xa was purified according to (H. Nobukazu et al. J.Biochem. 97 (1985)1347-1355); from tissue; bovine plasma inferred
# T6 sequence (P00743 234-492 limits assumed): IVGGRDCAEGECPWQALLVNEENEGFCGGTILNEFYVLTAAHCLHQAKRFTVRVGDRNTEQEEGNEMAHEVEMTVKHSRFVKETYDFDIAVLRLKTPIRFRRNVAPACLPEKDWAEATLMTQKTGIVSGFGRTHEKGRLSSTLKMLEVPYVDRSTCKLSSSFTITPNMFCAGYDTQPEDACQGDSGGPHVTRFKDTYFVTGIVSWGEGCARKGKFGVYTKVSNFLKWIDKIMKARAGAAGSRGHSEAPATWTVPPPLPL
# T6 sequence (P00743 41-180 partner limits assumed): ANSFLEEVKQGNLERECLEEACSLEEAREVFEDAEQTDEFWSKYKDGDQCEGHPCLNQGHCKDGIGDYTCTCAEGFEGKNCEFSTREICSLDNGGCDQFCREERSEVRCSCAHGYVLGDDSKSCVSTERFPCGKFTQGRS
# Protocol: as §1, §2, §3
# [9] = biological target: T7, recombinant human protein Ca (Homo sapiens, UniProt P04070); test: Inhibition of amidolytic activity of protein Ca (substrate S2366); format: biochemical; details: graphical Dixon method, read-out: Ki, amidolytic activity, Prot. Ca
# T7 construct: purchased ZymoGenetics, Inc. (Seattle, Wash.)
# T7 sequence (P04070 212-461 limits assumed): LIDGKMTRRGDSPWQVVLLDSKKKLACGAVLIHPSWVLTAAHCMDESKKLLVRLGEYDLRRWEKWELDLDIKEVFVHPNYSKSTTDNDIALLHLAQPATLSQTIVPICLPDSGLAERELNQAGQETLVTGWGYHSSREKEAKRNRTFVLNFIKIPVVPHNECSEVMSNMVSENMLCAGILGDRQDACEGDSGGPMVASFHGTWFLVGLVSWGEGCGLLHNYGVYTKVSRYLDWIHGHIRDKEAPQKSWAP
# T7 sequence (P04070 43-197 partner limits assumed): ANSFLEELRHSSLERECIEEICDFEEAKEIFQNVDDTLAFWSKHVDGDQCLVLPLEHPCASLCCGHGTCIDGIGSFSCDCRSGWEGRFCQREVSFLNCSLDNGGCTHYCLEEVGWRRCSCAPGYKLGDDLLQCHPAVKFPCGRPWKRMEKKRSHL
# Protocol: as §1, §2, §3
# [10] = system: coagulation factors of human plasma; test: Clotting test, prothrombin time (PTT); format: biochemical; details: 1.0 μM aprotinin analogue
# Protocol: (§4) The analogues were also tested for inhibition of the amidolytic activity of the serine proteases: bovine factor Xa, human factor IIa, human recombinant factor VIIa and human recombinant protein Ca. The experiments were performed essentially as described for plasma kallikrein only appropriate substrates were used. Finally the analogues were analysed for an effect on the coagulation factors of human plasma by means of two clotting tests. These tests, the prothrombin time (PTT) and the activated thromboplastin time (APTT) were performed with General Diagnostics® reagents from Organon (Durham, N.C.) according to the directions given by the manufacturer.
# [11] = system: coagulation factors of human plasma; test: Clotting test, activated thromboplastin time (APTT); format: biochemical; details: 1.0 μM aprotinin analogue
# Protocol: as §4
substance,measurement,setting,value
aprotinin(15Gly),Antitrypsin activity (in words),[1],outstanding antitrypsin activity
same,Inhibition of kallikrein (in words),[2],surprisingly inhibits kallikrein
aprotinin(15Ala),Effect on elastase (in words),[3],only a weak inhibitory effect on elastase
aprotinin(15 Val),Effect on elastase (in words),[3],relatively high selectivity for granulocyte elastase
same,Inhibition effect on collagenase (in words),[4],inhibition effect on collagenase
"Aprotinin (bovine pancreatic trypsin inhibitor, BPTI) [Native Aprotinin]",Ki,"[5]; graphical Dixon method, substrate S2302, pH 7.4, 25° C.",180 nM
same,"Inhibition of plasma kallikrein (in words, FIGS. 5A and 5B)","[5]; kallikrein 3 nM, aprotinin 0-20 nM, 30 minutes",moderate inhibition
same,"Amidolytic activity of FIIa, inhibition",[6],-
same,"Amidolytic activity of FVIIa, inhibition",[7],-
same,"Amidolytic activity of FXa, inhibition",[8],-
same,Ki,[9],400 nM
same,Clot assays PTT,[10],-
same,Clot assays APTT,[11],-
